Experimental data published in publication PMC8061427 (Science translational medicine, 2020).
Where “and” joins values, the source holds several entries; their conditions need not be identical. Equal values may be shown once. Blank lines part the entries; values can stand above or below the compound they belong to. Where no end group is shown, it is not given here. The star is where a group is joined. Myristoyl = CCCCCCCCCCCCCC(=O)*

Key:
[1] = tested on: mice; experiment: Mouse tail bleeding time test; conditions: cangrelor 30 μg/kg; for effect on mouse tail bleeding time: Fig. 5, M3mP6 HLPN 5 or 10 μmol/kg, high dose aspirin 36 mg/kg i.p., clopidogrel 4 mg/kg, ticagrelor 3 mg/kg
[2] = tested on: C57BL/6 mice; experiment: FeCl3-induced mouse carotid artery thrombosis model; type: in vivo; conditions: for effect on occlusive thrombus formation: 7.5% FeCl3
[3] = lipid micellar formulation; cited from earlier work
[4] = tested on: mice; experiment: Laser-induced cremaster arteriolar thrombosis model in mice; type: in vivo, mouse; conditions: pre-injected intravenously; M3mP6 HLPN 10 μmol/kg, cangrelor 30 μg/kg; 27 injury sites each
[5] = no reference given; cited from earlier work

effect on mouse tail bleeding time [1]: increased tail bleeding time
Compound: CCCSc1nc(N[C@@H]2C[C@H]2c2ccc(F)c(F)c2)c2nnn([C@@H]3C[C@H](OCCO)[C@@H](O)[C@H]3O)c2n1 [ticagrelor]

Compound: COC(=O)[C@H](c1ccccc1Cl)N1CCc2sccc2C1 [clopidogrel]
effect on occlusive thrombus formation ([2]; Fig. 4C, M3mP6 HLPN 10 μmol/kg, clopidogrel 4 mg/kg oral 2 hours before, ticagrelor 3 mg/kg oral 2 hours before): delayed occlusive thrombus formation following FeCl3-induced injury but was less effective than M3mP6 HLPN

Compound: Myristoyl-FEEERA [mP6]
peptide concentration achieved in lipid micellar suspension [3]: 1 mM and < 1 mM

effect on mouse tail bleeding time [1]: increased tail bleeding time
Compound: CSCCNc1nc(SCCC(F)(F)F)nc2c1ncn2[C@@H]1O[C@H](COP(=O)(O)OP(=O)(O)C(Cl)(Cl)P(=O)(O)O)[C@@H](O)[C@H]1O [cangrelor]
overall effect on occlusive thrombosis ([2]; Fig. 4E, cangrelor 30 μg/kg retro-orbital, M3mP6 HLPN 10 μmol/kg): moderately better than M3mP6 HLPN | effect on platelet thrombus formation [4]: potently inhibiting platelet thrombus formation | plasma half-life [5]: 3 to 6 min | tail bleeding time ([1]; post-injury injection, M3mP6 HLPN 10 μmol/kg): prolonged tail bleeding time

effect on mouse tail bleeding time [1]: increased tail bleeding time
Compound: CC(=O)Oc1ccccc1C(=O)O [aspirin]
effect on occlusive thrombus formation ([2]; Fig. 4B, M3mP6 HLPN 5 μmol/kg, aspirin 36 mg/kg i.p. 1 hour before): no obvious effect
